Experimental data published in patent publication US20070156046A1, “Method of enriching hyperpolarized atom nuclei and an apparatus for implementing the method” (priority 2004, published 2007).

Legend:
[1] = solubility (Ostwald coefficient) of ^129Xe in toluol and ethanol depending on the temperature of the solvent; assay type: physicochemical; conditions: for increase of the density compared to the gas phase: 180° K; for density of ^129Xe compared with the gas phase: about 240° K
Experimental: Solubility is defined as the density of the hyperpolarized gas in the solvent relative to the density of the hyperpolarized gas in the gas chamber situated above a given temperature and pressure. The solubility is also referred to as the Ostwald coefficient.
An even higher solubility of ^129Xe in the solvent is obtained by cooling to temperatures of 180° K, thereby obtaining a 100-fold increase of the density in both toluol and ethanol compared to the gas phase. Further cooling by just a few degrees Kelvin already results in an increase of the Ostwald coefficient to a value of 200 (FIG. 2).

[2] = ^129Xe densities in the solvent in the two-stage enrichment apparatus; assay type: physicochemical; conditions: solvent toluol/ethanol
Experimental: A gas mixture 1 with hyperpolarized atomic nuclei flows from a polarizer (not shown) into a first chamber 2 containing a cooled solvent. Chamber 2 has means for cooling the solvent. The solvent containing the gas mixture is thereby cooled to-a temperature T1, of, e.g. 180° K.
The gas components are enriched in chamber 2 according to their solubility in the solvent, and thus separated from one another. The unnecessary components of the mixture are released through valve 3. The solvent enriched with the hyperpolarized atomic nuclei is guided through a connection line out of chamber 2 into a further chamber 5. Chamber 5 comprises means for degassing, such as an apparatus for producing ultrasound and/or heating.
Chamber 5 thus represents a degassing chamber 5 for the hyperpolarized atomic nuclei from the solvent. In chamber 5, a gas pressure of the originally dissolved gas arises due to the degassing of the hyperpolarized atomic nuclei via the solvent. The gas pressure is determined by the partial pressure of the hyperpolarized atomic nuclei (gas component) in solvent chamber 2, and the ratio of the solubilities of this gas component in the solvent at temperatures T1 in chamber 2 and T2 in chamber 5.
Following degassing in chamber 5, the solution and degassing process may be repeated, as represented in FIG. 2 by continuous lines. For this, starting from chamber 5 at the end of the first enrichment stage, the gas with the hyperpolarized atomic nuclei is guided into chamber 6, where it is cooled to the temperature T1. Following enrichment in the solvent, the gas is conducted into chamber 8 with a temperature of T2 for degassing. Chamber 8, again, has a sufficient volume.
The following ^129Xe densities in the solvent (toluol/ethanol) may be set at different temperatures: […]

[Xe] [^129Xe, xenon]
increase of the density compared to the gas phase ([1]; in ethanol): 100 fold
density of ^129Xe compared with the gas phase ([1]; in ethanol): ten times higher
increase of the density compared to the gas phase ([1]; in toluol): 100 fold
density of ^129Xe compared with the gas phase ([1]; in toluol): ten times higher
Ostwald coefficient ([1]; solvent ethanol, standard conditions (293° K, 1 bar)): about 2.5
Ostwald coefficient ([1]; solvent toluol, standard conditions (293° K, 1 bar)): about 5
solubility or Ostwald coefficient compared to at room temperature ([1]; temperature of 273° K, toluol and ethanol (FIG. 1)): clear increase
Ostwald coefficient ([1]; toluol and ethanol, further cooling by a few degrees Kelvin below 180° K): 200
pXe, Sol, Stage 1 (Chamber 2) ([2]; T = 180°K): pXe, Sol −7.0 bar
pXe, Sol, Stage 2 (Chamber 6) ([2]; T = 180°K): ˜20 bar
pXe, Sol, Stage 1 (Chamber 2) ([2]; T = 200°K): pXe, Sol −2.1 bar
pXe, Sol, Stage 2 (Chamber 6) ([2]; T = 200°K): ˜10 bar
pXe, Sol, Stage 1 (Chamber 2) ([2]; T = 240°K): pXe, Sol −0.7 bar
pXe, Sol, Stage 2 (Chamber 6) ([2]; T = 240°K): ˜3.5 bar
